Measurements from US9708336B2, “Metallo-beta-lactamase inhibitors” (priority 2014, dated 2017).
pIC50: −log10 of the molar value. Where two headings read alike, the source gives them in different places.

Experiments:
NDM-1 = NDM-1 (Klebsiella pneumoniae, UniProt C7C422); assay: biochemical; type: biochemical; details: read-out: NDM-1 IC50
IMP-1 = IMP-1 (Serratia marcescens, UniProt P52699); assay: biochemical; type: biochemical; details: read-out: IMP-1 IC50
VIM-1 = VIM-1 (Pseudomonas aeruginosa (strain ATCC 15692 / DSM 22644 / CIP 104116 / JCM 14847 / LMG 12228 / 1C / PRS 101 / PAO1), UniProt A0A0F7KYQ8); assay: Enzyme activity: determination of IC50, fluorescence assay with CCF2-FA substrate (VIM-1); type: biochemical
Description: Enzyme Activity: Determination of IC50
The Class B enzyme activities were measured in the presence of the test inhibitor in a fluorescence assay against a commercially available substrate consisting of a cephalosporin core linking 7-hydroxycoumarin to fluorescein (CCF2-FA). The enzyme (NDM-1, IMP-1 or VIM-1) and the substrate were diluted in 100 mM KH2PO4 buffer (pH 7) containing 0.005% Tween-20 and 10 μM ZnSO4. […] The test inhibitor was dissolved in dimethylsulfoxide and diluted 1:50 in the assay, resulting in a final concentration range of 20 uM to 0.00063 uM. In a 384-well microplate, the test inhibitor was incubated with the metallo-β-lactamase enzyme and the substrate for 2 hours at 25° C. Fluorescence at 460 nm following excitation at 405 nm was measured. The IC50 value was determined from semi-logarithmic plots of enzyme inhibition versus inhibitor concentration, with a curve generated using a 4-parameter fit.

[1] = test system: Escherichia coli expressing NDM-1 (CLB30005); assay: Antibiotic potentiation activity: synergistic concentration (MITC95) with imipenem, OD600 growth; type: cell-based; details: for Escherichia coli MITC95: Escherichia coli expressing NDM-1 (CLB30005), 95% growth inhibition; for Escherichia coli expressing NDM-1 (CLB 30005) MITC95: concentration giving 95% inhibition of bacterial growth
Method in brief: (§1)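 Spectrophotometric growth readings were taken following 22–24 h at 35 °C. Before that, organisms in 1.1× CAMHB were mixed with imipenem, used at 4 μg/ml in assay, and test compound.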

[2] = test system: Klebsiella pneumoniae expressing VIM-1 (IHMA599644); assay: as above; type: cell-based; details: for Klebsiella pneumoniae MITC95: Klebsiella pneumoniae expressing VIM-1 (IHMA599644), 95% growth inhibition; for Klebsiella pneumoniae expressing VIM-1 (IHMA 599644) MITC95: concentration giving 95% inhibition of bacterial growth
Method in brief: as §1

[3] = test system: Serratia marcescens expressing IMP-1 (CL5741); assay: as above; type: cell-based; details: for Serratia marcescens MITC95: Serratia marcescens expressing IMP-1 (CL5741), 95% growth inhibition; for Serratia marcescens expressing IMP-1 (CL5741) MITC95: concentration giving 95% inhibition of bacterial growth
Method in brief: as §1

[4] = NDM-1 enzyme, CCF2-FA fluorescence assay
[5] = IMP-1 enzyme, CCF2-FA fluorescence assay
[6] = VIM-1 IC50, VIM-1 enzyme, CCF2-FA fluorescence assay
[7] = fluorescence assay with CCF2-FA substrate
[8] = fluorescence assay with CCF2-FA substrate, read-out: VIM-1 IC50
[9] = VIM-1 enzyme, CCF2-FA fluorescence assay, read-out: VIM-1 IC50
[10] = VIM-1 IC50, fluorescence assay with CCF2-FA substrate

Chain of NDM-1 (C7C422 whole entry, looked up, species assumed): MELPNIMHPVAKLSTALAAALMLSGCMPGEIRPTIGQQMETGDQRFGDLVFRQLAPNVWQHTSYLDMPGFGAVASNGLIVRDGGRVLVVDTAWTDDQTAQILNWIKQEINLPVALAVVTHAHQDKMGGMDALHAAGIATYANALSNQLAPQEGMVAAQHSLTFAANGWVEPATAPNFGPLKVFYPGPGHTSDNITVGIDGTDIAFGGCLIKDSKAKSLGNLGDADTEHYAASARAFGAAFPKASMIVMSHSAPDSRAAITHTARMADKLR
Chain of IMP-1 (P52699 whole entry, looked up): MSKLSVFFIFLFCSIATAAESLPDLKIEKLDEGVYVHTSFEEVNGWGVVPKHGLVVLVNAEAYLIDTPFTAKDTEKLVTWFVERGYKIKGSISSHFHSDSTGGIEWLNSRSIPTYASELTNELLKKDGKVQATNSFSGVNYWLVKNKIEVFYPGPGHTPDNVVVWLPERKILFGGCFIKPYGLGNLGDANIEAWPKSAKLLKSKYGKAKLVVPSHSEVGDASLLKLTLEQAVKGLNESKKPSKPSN

Row | Structure (SMILES) | pIC50 (NDM-1; [4]) | pIC50 (IMP-1; [5]) | pIC50 (VIM-1; [6]) | Escherichia coli MITC95 [1] | Klebsiella pneumoniae MITC95 [2] | Serratia marcescens MITC95 [3] | pIC50 (NDM-1; [7]) | pIC50 (IMP-1; [7]) | pIC50 (VIM-1; [8]) | Escherichia coli expressing NDM-1 (CLB 30005) MITC95 [1] | Klebsiella pneumoniae expressing VIM-1 (IHMA 599644) MITC95 [2] | Serratia marcescens expressing IMP-1 (CL5741) MITC95 [3] | pIC50 (VIM-1; [9]) | pIC50 (VIM-1; [10])
1 | N#Cc1ccc(-c2cccc(S(N)(=O)=O)c2-c2nnn[nH]2)cc1 [Example 308, 4′-cyano-2-(1H-tetrazol-5-yl)-[1,1′-biphenyl]-3-sulfonamide] | 7.95 | 6.72 | 6.78 | 2.344 µM | 75 µM | 9.375 µM | – | – | – | – | – | – | – | –
2 | NS(=O)(=O)c1cccc(-c2cnc(N3CCOCC3)nc2)c1-c1nn[nH]n1 [Example 94, 3-(2-morpholin-4-ylpyrimidin-5-yl)-2-(2H-tetrazol-5-yl)benzenesulfonamide] | – | – | – | – | – | – | 8.20 | 6.78 | 6.63 | 2.344 µM | 100 µM | 12.5 µM | – | –
3 | NS(=O)(=O)c1cccc(-c2cnn3ncccc23)c1-c1nn[nH]n1 [Example 105, 3-pyrazolo[1,5-b]pyridazin-3-yl-2-(2H-tetrazol-5-yl)benzenesulfonamide] | – | – | – | – | – | – | 7.84 | 6.43 | 7.15 | 0.9766 µM | 18.75 µM | 31.25 µM | – | –
4 | NS(=O)(=O)c1cccc(-c2csc3ccccc23)c1-c1nn[nH]n1 [Example 96, 3-(1-benzothiophen-3-yl)-2-(2H-tetrazol-5-yl)benzenesulfonamide] | – | – | – | – | – | – | 8.88 | 6.96 | 8.45 | 1.758 µM | 25 µM | 15.63 µM | – | –
5 | NCCCc1ccc(-c2cccc(S(N)(=O)=O)c2-c2nnn[nH]2)cc1 [Example 305, 4′-(3-aminopropyl)-2-(1H-tetrazol-5-yl)-[1,1′-biphenyl]-3-sulfonamide] | 7.30 | 6.48 | 6.99 | 1.953 µM | 18.75 µM | 4.688 µM | – | – | – | – | – | – | – | –
6 | NS(=O)(=O)c1cccc(-c2cnn(Cc3ccncc3)c2)c1-c1nn[nH]n1 [Example 100, 3-[1-(pyridin-4-ylmethyl)-1H-pyrazol-4-yl]-2-(2H-tetrazol-5-yl)benzenesulfonamide] | – | – | – | – | – | – | 7.53 | 6.84 | 6.03 | 7.031 µM | >200 µM | 14.06 µM | – | –
7 | NS(=O)(=O)c1nccc(-c2ccc3c(c2)CNC3=O)c1-c1nnn[nH]1 [Example 192, 4-(1-oxoisoindolin-5-yl)-3-(1H-tetrazol-5-yl)pyridine-2-sulfonamide] | – | – | – | – | – | – | 7.44 | 6.36 | 7.01 | 1.953 µM | 50 µM | 50 µM | – | –
8 | NS(=O)(=O)c1cccc(C#Cc2cccnc2)c1-c1nn[nH]n1 [Example 147, 3-(pyridin-3-ylethynyl)-2-(2H-tetrazol-5-yl)benzenesulfonamide] | – | – | – | – | – | – | 7.78 | 6.99 | 5.96 | 3.125 µM | >200 µM | 18.75 µM | – | –
9 | COc1ccc(-c2cccc(S(N)(=O)=O)c2-c2nn[nH]n2)cn1 [Example 78, 3-(6-methoxypyridin-3-yl)-2-(2H-tetrazol-5-yl)benzenesulfonamide] | – | – | – | – | – | – | 7.71 | 6.69 | 6.83 | 0.7813 µM | 100 µM | 18.75 µM | – | –
10 | NS(=O)(=O)c1cccc(C2CCCNC2)c1-c1nn[nH]n1 (stereo not drawn) [Example 175, 3-(piperidin-3-yl)-2-(2H-tetrazol-5-yl)benzenesulfonamide] | – | – | – | – | – | – | 6.26 | 4.91 | 5.51 | 0.7813 µM | 75 µM | 37.5 µM | – | –
11 | NCCc1ccc(-c2cccc(S(N)(=O)=O)c2-c2nnn[nH]2)cc1 [Example 300, 4′-(2-aminoethyl)-2-(1H-tetrazol-5-yl)-[1,1′-biphenyl]-3-sulfonamide] | 7.43 | 6.43 | – | 1.172 µM | 9.375 µM | 12.5 µM | – | – | – | – | – | – | 7.50 | –
12 | NS(=O)(=O)c1cccc(-c2cn(S(=O)(=O)c3ccccc3)c3ncccc23)c1-c1nn[nH]n1 [Example 109, 3-[1-(phensulfonyl)-1H-pyrrolo[2,3-b]pyridin-3-yl]-2-(2H-tetrazol-5-yl)benzenesulfonamide] | – | – | – | – | – | – | 8.66 | 7.41 | – | 12.5 µM | 18.75 µM | 12.89 µM | – | 9.20
13 | CS(=O)(=O)c1ccc(-c2cccc(S(N)(=O)=O)c2-c2nn[nH]n2)cn1 [Example 58, 3-[6-(methylsulfonyl)pyridin-3-yl]-2-(2H-tetrazol-5-yl)benzenesulfonamide] | – | – | – | – | – | – | 7.84 | 6.64 | 6.72 | 0.5859 µM | 100 µM | 12.5 µM | – | –
14 | CC(C)n1nccc1-c1cccc(S(N)(=O)=O)c1-c1nn[nH]n1 [Example 106, 3-[1-(1-methylethyl)-1H-pyrazol-5-yl]-2-(2H-tetrazol-5-yl)benzenesulfonamide] | – | – | – | – | – | – | 8.02 | 5.74 | 6.02 | 3.906 µM | 200 µM | 62.5 µM | – | –
15 | NS(=O)(=O)c1cccc(C#CCN2CCS(=O)(=O)CC2)c1-c1nn[nH]n1 [Example 148, 3-[3-(1,1-dioxidothiomorpholin-4-yl)prop-1-yn-1-yl]-2-(2H-tetrazol-5-yl)benzenesulfonamide] | – | – | – | – | – | – | 6.88 | 6.26 | 5.51 | 6.25 µM | >200 µM | 50 µM | – | –
16 | NS(=O)(=O)c1cccc(-c2ccc3ncccc3c2)c1-c1nn[nH]n1 [Example 66, 3-quinolin-6-yl-2-(2H-tetrazol-5-yl)benzenesulfonamide] | – | – | – | – | – | – | 8.96 | 6.85 | 7.54 | 0.7813 µM | 75 µM | 18.75 µM | – | –
17 | CCOC(=O)N1CCC(c2cccc(S(N)(=O)=O)c2-c2nn[nH]n2)CC1 [Example 173, ethyl 4-(3-sulfamoyl-2-(2H-tetrazol-5-yl)phenyl)piperidine-1-carboxylate] | – | – | – | – | – | – | 8.36 | 6.83 | – | 4.688 µM | >200 µM | 6.25 µM | – | 7.07
18 | NCc1nc(-c2ccc(-c3cccc(S(N)(=O)=O)c3-c3nn[nH]n3)cc2)no1 [Example 249, 4′-(5-(Aminomethyl)-1,2,4-oxadiazol-3-yl)-2-(2H-tetrazol-5-yl)-[1,1′-biphenyl]-3-sulfonamide] | 8.12 | 6.98 | – | 0.7813 µM | 50 µM | 3.125 µM | – | – | – | – | – | – | 7.06 | –
19 | NS(=O)(=O)c1nccc(-c2ccc3c(c2)CC(=O)N3)c1-c1nn[nH]n1 [Example 201, 4-(2-oxoindolin-5-yl)-3-(2H-tetrazol-5-yl)pyridine-2-sulfonamide] | – | – | – | – | – | – | 7.18 | 5.84 | – | 0.7813 µM | 18.75 µM | 50 µM | – | 7.17
20 | NS(=O)(=O)c1nccc(-c2ccc3c(c2)OCC(=O)N3)c1-c1nn[nH]n1 [Example 205, 4-(3-oxo-3,4-dihydro-2H-benzo[b][1,4]oxazin-7-yl)-3-(2H-tetrazol-5-yl)pyridine-2-sulfonamide] | – | – | – | – | – | – | 7.84 | 6.95 | 7.62 | 0.3906 µM | 9.375 µM | 6.25 µM | – | –
